Results published in US11045465B2, “Methods and compositions to prevent addiction” (FLORIDA STATE UNIVERSITY RESEARCH FOUNDATION, INC., priority 2009, dated 2021).
Entries after “also recorded” stand apart in the source; their conditions may differ.

Columns and labels:
[1] = tested on: KOPR; conditions: 2.5 mg/kg; s.c. (Xia et al., 2007); cited from earlier work
[2] = molecular target: T1, μ opioid receptor (MOPR) (Mus musculus, UniProt P42866); experiment: DAMGO concentration-dependent [35S]GTPγS binding in caudate-putamen and nucleus accumbens membrane preparations; format: biochemical, mice
T1 construct: The caudate-putamen and nucleus accumbens were microdissected and the tissue was homogenized; from tissue; host or cells: mouse brain: caudate-putamen and nucleus accumbens membrane preparations
Protocol: (§1) MOPR activity was assayed by using [^35S]GTPγS binding on membrane preparations using a modification of the previously described method^23. The mice were sacrificed by cervical dislocation and the brain was dissected rapidly. The caudate-putamen and nucleus accumbens were microdissected and the tissue was homogenized using teflon pistol in Eppendorf tubes (10 strokes) in 300 μl of homogenization buffer containing 25 mM Tris/pH7.4, 5 mM EDTA and 0.1 mM PMSF and kept on ice. Homogenate was diluted to 2.5 ml using the homogenization buffer and centrifuged at ˜350,000 g for 30 min. After washing 3 times with 50 mM Tris-HCl/pH7.4, the pellets were re-suspended in 50 mM Tris-HCl/pH7.4 containing 0.32 M sucrose, passed through a 26.5 G needle for 3 times, frozen in dry ice/ethanol and stored in −80° C. until use. […] Bound and free [^35S]GTPγS were separated by filtration with GF/B filters under reduced pressure. Radioactivity on filters was determined by liquid scintillation counting. Nonspecific binding was subtracted from total stimulated and basal binding. […] MOPR activity was reported as % of baseline (unstimulated) activity: [Disintegrations per minute (DPM) with agonist stimulated binding−DPM of nonspecific binding)/(DPM basal (without agonist)−DPM nonspecific)×100. Protein content of membranes was determined by the BCA method of^24 with bovine serum albumin as the standard.

[3] = tested on: frontal cortical dopamine levels; conditions: cited from earlier work
[4] = tested on: healthy human volunteers; conditions: studies that evaluated detection/likeability (Kollins et al., 2001); cited from earlier work
[5] = tested on: rats; conditions: 0.5 mg/kg MPH, rats (Paine et al., 2007); cited from earlier work
[6] = tested on: Adult C57BL/6 mice; experiment: Conditioned place preference (CPP); format: in vivo; conditions: for MPH-induced place preference / CPP score compared to the saline group: naltrexone 10 mg/kg (highest dose) prior to MPH 7.5 mg/kg; for place preference (CPP): naltrexone 1 or 10 mg/kg alone; for effect on high dose MPH-induced CPP (rewarding effects): naltrexone prior to MPH, naltrexone dose not stated
Protocol: Photobeams wired to a computer can record animal location (time spent in the chamber). The central chamber has a smooth floor with gray color. Each preference chamber is either white with a mesh floor or black with a bar floor. The CPP procedure included three phases. (1) The pre-conditioning phase was performed on day 1 (two sessions daily, AM and PM). In each preconditioning session, mice were initially placed in the central gray chamber for 2 min and then allowed free access to the white and black chambers for 20 min. The time spent in each chamber was recorded. […] (2) The conditioning phase was carried out on each of days 2 to 6 [two sessions daily, AM and PM one each for vehicle-paired (saline as vehicle) and drug-paired (cocaine or MPH as drugs) sessions]. In the vehicle-paired session mice were injected with saline (i.p.) and placed in the central gray chamber for 2 min (to isolate injection effect to the central chamber) and then confined to the vehicle-paired chamber for 30 min. In the drug-paired session, the mice were given the drug in the central chamber, retained there for 2 min and then confined for 30 min in the drug-paired chamber. […] The time spent in each chamber was recorded. The difference between time spent in the drug-paired chamber during the test phase and pre-conditioning phases was calculated as the CPP score.

[7] = tested on: mice; experiment: Locomotor activity measured during the CPP assay; format: in vivo; conditions: for MPH-induced increase in locomotor activity: naltrexone 1, 5 or 10 mg/kg 30 min prior to MPH 7.5 mg/kg
Protocol: In control groups, saline or naltrexone at each of the doses was administered alone (without MPH).

[8] = molecular target: T1, μ opioid receptor (MOPR); experiment: DAMGO-stimulated [35S]GTPγS binding (MOPR activity) in caudate-putamen and nucleus accumbens membranes of drug-treated mice from the CPP assay; format: in vivo; conditions: for MOPR activity (DAMGO-stimulated [35S]GTPγS binding) compared to saline: caudate-putamen and nucleus accumbens, 10 μM DAMGO
Protocol: as §1

[9] = cited from earlier work
[10] = 0.75 mg/kg dose (Balcioglu et al., 2009)
[11] = MPH 7.5 mg/kg vs cocaine 10 mg/kg
[12] = naltrexone 1, 5 or 10 mg/kg prior to MPH 7.5 mg/kg

T1 sequence (P42866 whole entry): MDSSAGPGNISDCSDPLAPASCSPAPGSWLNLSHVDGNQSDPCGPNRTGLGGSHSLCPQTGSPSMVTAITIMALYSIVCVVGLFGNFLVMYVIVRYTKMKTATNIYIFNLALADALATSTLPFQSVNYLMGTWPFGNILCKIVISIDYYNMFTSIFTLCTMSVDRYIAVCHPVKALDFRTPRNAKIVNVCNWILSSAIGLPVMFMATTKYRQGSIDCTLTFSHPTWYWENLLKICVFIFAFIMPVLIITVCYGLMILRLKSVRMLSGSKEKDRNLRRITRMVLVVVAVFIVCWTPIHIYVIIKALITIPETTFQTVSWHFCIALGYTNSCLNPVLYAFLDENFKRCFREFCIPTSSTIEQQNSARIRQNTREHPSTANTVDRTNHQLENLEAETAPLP

SMILES: CC(N)Cc1ccccc1 (stereo not drawn) [Amphetamine]
- KOPR signaling in the nucleus accumbens [1]: modulates KOPR signaling in the nucleus accumbens in a region-specific manner

SMILES: C[C@@H](NC(=O)[C@@H](N)Cc1ccc(O)cc1)C(=O)NCC(=O)N(C)[C@@H](Cc1ccccc1)C(=O)NCCO [DAMGO]
- concentration at which maximal [35S]GTPγS binding was reached [2]: 10 µM
- maximal [35S]GTPγS binding ([2]; at 10 μM DAMGO): 1.75 fold of the basal level

SMILES: COC(=O)C(c1ccccc1)C1CCCCN1 (stereo not drawn) [MPH, Methylphenidate]
- time after MPH administration at which increases in frontal cortical dopamine levels occur [3, 10]: ~60 min
- effect on neurotransmitter levels ([3]; low doses of MPH (literature)): selectively affect neurotransmitter levels in the frontal cortex
- studies reporting subjective responses to oral MPH [4]: 18 (72%) of 25 studies
- accuracy in 5-CSRT assay [5]: increased accuracy
- place preference: time spent in the drug-paired chamber, test vs pre-conditioning sessions ([6]; MPH 0.75 mg/kg (low, therapeutic dose) i.p.): did not; also recorded: neither induce place preference; also recorded: do not; also recorded: no statistically significant difference
- place preference: time spent in the drug-paired chamber, test vs pre-conditioning sessions ([6]; MPH 7.5 mg/kg (high, supra-therapeutic dose) i.p., alone): showed significant place preference; also recorded: induced CPP; also recorded: produce CPP; also recorded: induce place preference; also recorded: produce place preference; also recorded: spent significantly longer period of time in the drug-paired chamber; also recorded: produced significant increase
- CPP score compared to the saline and low dose MPH groups ([6]; MPH 7.5 mg/kg i.p.): significantly higher CPP scores
- CPP score, high dose MPH group vs cocaine group [6, 11]: no statistically significant difference
- locomotor activity compared to saline ([7]; MPH 0.75 mg/kg): no significant effect
- locomotor activity compared to saline ([7]; MPH 7.5 mg/kg): significantly increased locomotor activity; also recorded: increased locomotor activity significantly
- MOPR activity ([8]; 7.5 mg/kg MPH to 25-day old mice for 5 days, expected): MOPR upregulation
- MOPR activity (DAMGO-stimulated [35S]GTPγS binding) compared to saline ([8]; MPH 0.75 mg/kg i.p.): did not produce significant enhancements
- MOPR activity (DAMGO-stimulated [35S]GTPγS binding) compared to saline ([8]; MPH 7.5 mg/kg i.p.): significantly greater; also recorded: activate MOPR; also recorded: upregulation of striatal MOPR; also recorded: upregulate MOPR activity; also recorded: significantly higher MOPR activity
- MOPR activity, high dose MPH group vs cocaine group [8, 11]: no significant difference
- serum and brain concentrations of d-methylphenidate ([9]; 0.75 mg/kg MPH, adult mice (ref. 19)): equivalent to its serum and brain (estimated) concentrations in ADHD patients taking therapeutic doses of MPH
- clinically relevant serum levels of D-MPH [9, 10]: 6 to 10 ng/mL
- time brain levels remain high [9, 10]: ~30 min
- time to reach clinically relevant serum levels of D-MPH [9, 10]: ≤ 15 min

SMILES: O=C1CC[C@@]2(O)[C@H]3Cc4ccc(O)c5c4[C@@]2(CCN3CC2CC2)[C@H]1O5 [naltrexone]
- naltrexone dose needed to block reinforcing properties of MPH ([6]; 7.5 mg/kg MPH, preliminary findings): at least 5 mg/kg
- MPH-induced place preference / CPP score compared to the saline group [6]: not significantly different from that for the saline group
- MPH-induced place preference / CPP score compared to the saline group ([6]; listed as Naltrexone): blocking it completely
- time spent in the drug-paired chamber, PC vs Test sessions ([6]; naltrexone 1, 5 or 10 mg/kg administered prior to MPH 7.5 mg/kg): significant difference between PC and Test sessions
- CPP score compared to MPH administered alone [6, 12]: significantly decreased the CPP score
- dose dependence of the decrease in the CPP score [6, 12]: dose-dependent
- place preference (CPP) [6]: did not induce CPP
- place preference (CPP) ([6]; listed as Naltrexone): did not affect CPP
- MPH-induced CPP / CPP score compared to MPH administered alone ([6]; naltrexone 5 or 10 mg/kg 30 min prior to MPH 7.5 mg/kg): significantly lower; also recorded: blocks MPH-induced conditioned place preference (CPP)
- effect on high dose MPH-induced CPP (rewarding effects) [6]: can significantly attenuate rewarding effects of MPH
- effect on high dose MPH-induced CPP (rewarding effects) ([6]; listed as Naltrexone): prevents MPH-induced CPP; also recorded: attenuates high dose MPH-induced place preference
- MPH-induced increase in locomotor activity [7]: not affected
- MPH-induced increase in locomotor activity ([7]; listed as Naltrexone): did not block the MPH-induced increases in locomotor activity
- locomotor activity ([7]; naltrexone 1, 5 or 10 mg/kg alone): did not affect locomotor activity

SMILES: CCN1CCC[C@H]1CNC(=O)c1c(O)c(Cl)cc(Cl)c1OC [raclopride]
- CPP score compared to the MPH only group ([6]; MPH 7.5 mg/kg + raclopride): did not show significant differences
